Measured values as given in patent EP2910557A1, “Enantiopure tetrasubstituted pyrrolidines as scaffolds for proteasome inhibitors and medicinal applications thereof” (Ikerchem, S.L., priority 2014, dated 2015).

Experiments:
Assay in all cases: Cancer cell growth inhibition, 72 h treatment
Assay type in all cases: cell-based
[1] = test system: 143b; conditions: Homo sapiens, Osteosarcoma 143b, Alamar Blue
Procedure: (§1) Cell culture-based assays were used to evaluate the ability of compounds of the invention to inhibit cancer cell growth.
(§2) Cells were obtained from the American Type Culture Collection (ATCC) and the European Collection of Cell Cultures. Cells were thawed in their appropriate media plus supplements (see table below). Cells were passaged at confluence by washing once in HBSS cation-free followed by a 3 minutes incubation with trypsin ([0.5 µg/ml]/EDTA [0.2 µg/ml]) (Gibco-BRL, 15400054) solution in HBSS at 37°C (except non-adherent cell lines - hematologic), and transferred to their appropriate media plus supplements. Prior to seeding at defined cell concentration, cells were recovered in medium, centrifuged, taken up in medium and counted.
(§3) All treatments were performed in triplicate. Experiments were carried out in 96-well cell culture plates (Cultek) and the cell lines seeded at the density mentioned in the table above and cultured at 37°C with 5% CO2. After 24h, media were supplemented by 100 µl/well of diluted test compound at variable final concentrations and incubated for 72 hours. Then, AlamarBlue® Reagent (Biosource DAL1100) was added to each well and incubated at 37°C for 4 hours. Relative fluorescent intensity that correlates with the number of living cells was read in a Cytofluor plate reader (Millipore) at 535/590 nm (Excitation/emission). After reading the AlamarBlue® signal, the hexosaminidase activitity was measured according to the following protocol: medium was removed and cells were washed once with PBS. 60 µl of substrate solution (p-nitrophenol-N-acetyl-beta-D-glucosaminide 7.5 mM [Sigma N-9376], sodium citrate 0.1 M, pH 5.0, 0.25% Triton X-1 00) was added to each well and incubated at 37°C for 1-2 hours; after this incubation time, a bright yellow colour appears; then, plates could be developed by adding 90 µl of developer solution (Glycine 50 mM, pH 10.4; EDTA 5 mM), and absorbance was recorded at 405 nm.
(§4) Note: In all cases assays were performed in Alamar Blue with the exception of those indicated (* = Hexosaminidase assay)

[2] = test system: A431; conditions: Homo sapiens
Procedure: as §1, §2, §3, §4

[3] = test system: A549; conditions: Homo sapiens, Lung cancer A549, Hexosaminidase assay (*)
Procedure: as §1, §2, §3, §4

[4] = test system: COLO 205; conditions: Homo sapiens, Colon cancer COLO 205, Alamar Blue
Procedure: as §1, §2, §3, §4

[5] = test system: Daoy; conditions: Homo sapiens, Brain Daoy, Alamar Blue
Procedure: as §1, §2, §3, §4

[6] = test system: HCT-116; conditions: Homo sapiens, Colon cancer HCT-116, Alamar Blue
Procedure: as §1, §2, §3, §4

[7] = test system: HT-1080; conditions: Homo sapiens
Procedure: as §1, §2, §3, §4

[8] = test system: HT-29; conditions: Homo sapiens, Colon cancer HT-29, Alamar Blue
Procedure: as §1, §2, §3, §4

[9] = test system: HeLa; conditions: Homo sapiens, Cervical HeLa, Alamar Blue
Procedure: as §1, §2, §3, §4

[10] = test system: HepG2; conditions: Homo sapiens, Liver cancer HepG2, Alamar Blue
Procedure: as §1, §2, §3, §4

[11] = test system: Jurkat; conditions: Homo sapiens, Hematologic Jurkat, Alamar Blue
Procedure: as §1, §2, §3, §4

[12] = test system: K562; conditions: Homo sapiens, Hematologic K562, Alamar Blue
Procedure: as §1, §2, §3, §4

[13] = test system: LS174T; conditions: Homo sapiens, Colon cancer LS174T, Alamar Blue
Procedure: as §1, §2, §3, §4

[14] = test system: LoVo; conditions: Homo sapiens, Colon cancer LoVo, Alamar Blue
Procedure: as §1, §2, §3, §4

[15] = test system: MCF-7; conditions: Homo sapiens, MCF7, Breast cancer MCF-7, Alamar Blue
Procedure: as §1, §2, §3, §4

[16] = test system: MDA-MB-231; conditions: Homo sapiens, Breast cancer MDA-MB-231, Alamar Blue
Procedure: as §1, §2, §3, §4

[17] = test system: MIA PaCa-2; conditions: Homo sapiens, Pancreatic cancer MIA PaCa-2, Alamar Blue
Procedure: as §1, §2, §3, §4

[18] = test system: NCI-H1650; conditions: Homo sapiens, Lung cancer NCI-H1650, Hexosaminidase assay (*)
Procedure: as §1, §2, §3, §4

[19] = test system: NCI-H1975; conditions: Homo sapiens, Lung cancer NCI-H1975, Hexosaminidase assay (*)
Procedure: as §1, §2, §3, §4

[20] = test system: NCI-H358; conditions: Homo sapiens, Lung cancer NCI-H358, Alamar Blue
Procedure: as §1, §2, §3, §4

[21] = test system: OVCAR-3; conditions: Homo sapiens, Ovarian cancer OVCAR-3, Hexosaminidase assay (*)
Procedure: as §1, §2, §3, §4

[22] = test system: PC-3; conditions: Homo sapiens, Prostate cancer PC-3, Alamar Blue
Procedure: as §1, §2, §3, §4

[23] = test system: RAMOS; conditions: Homo sapiens, Hematologic RAMOS, Alamar Blue
Procedure: as §1, §2, §3, §4

[24] = test system: RCC 786-O; conditions: Homo sapiens, 786-0, Renal RCC 786-O, Alamar Blue
Procedure: as §1, §2, §3, §4

[25] = test system: SK-BR-3; conditions: Homo sapiens
Procedure: as §1, §2, §3, §4

[26] = test system: SK-HEP-1; conditions: Homo sapiens, SK-HEP1, Liver cancer SK-HEP-1, Alamar Blue
Procedure: as §1, §2, §3, §4

[27] = test system: SK-OV-3; conditions: Homo sapiens, Ovarian cancer SK-OV-3, Alamar Blue
Procedure: as §1, §2, §3, §4

[28] = test system: SW480; conditions: Homo sapiens, Colon cancer SW480, Hexosaminidase assay (*)
Procedure: as §1, §2, §3, §4

[29] = test system: T47D; conditions: Homo sapiens, Breast cancer T47D
Procedure: as §1, §2, §3, §4

[30] = test system: U-373 MG; conditions: Homo sapiens, U373 MG, Brain U-373 MG, Hexosaminidase assay (*)
Procedure: as §1, §2, §3, §4

[31] = test system: U-87 MG; conditions: Homo sapiens, Brain U-87 MG, Hexosaminidase assay (*)
Procedure: as §1, §2, §3, §4

| SMILES | EC50 [1] | EC50 [3] | EC50 [4] | EC50 [5] | EC50 [6] | EC50 [8] | EC50 [9] | EC50 [10] | EC50 [11] | EC50 [12] | EC50 [13] | EC50 [14] | EC50 [15] | EC50 [16] | EC50 [17] | EC50 [18] | EC50 [19] | EC50 [20] | EC50 [21] | EC50 [22] | also measured |
| --- | --- | --- | --- | --- | --- | --- | --- | --- | --- | --- | --- | --- | --- | --- | --- | --- | --- | --- | --- | --- | --- |
| CC(C)C[C@H](NC(=O)[C@@H]1N[C@H](c2ccccc2)[C@@H]([N+](=O)[O-])[C@@H]1c1ccc(F)cc1)B(O)O [Example 6, (R)-1-((2R,3R,4S,5R)-3-(4-fluorophenyl)-4-nitro-5-phenylpyrrolidine-2-carboxamido)-3-methylbutylboronic acid] | 1.9 µM | 12 µM | 2.4 µM | 3.7 µM | 2.2 µM | 27 µM | 54 µM | 3.1 µM | 2 µM | 15 µM | 0.6 µM | 15 µM | 1.9 µM | 11 µM | 83 µM | 12 µM | 7.3 µM | 3.3 µM | 2.2 µM | 7.1 µM | EC50 ([2]; A-431, Epidermoid A431, Alamar Blue): 0.1 µM; EC50 ([7]; Fibrosarcoma HT-1080, Hexosaminidase assay (*)): 16 µM; EC50 [23]: 2.4 µM; EC50 [24]: 12 µM; EC50 ([25]; Breast cancer SK-BR-3, Hexosaminidase assay (*)): 6 µM; EC50 [26]: 1.9 µM; EC50 [27]: 13 µM; EC50 [28]: 13 µM; EC50 ([29]; Hexosaminidase assay (*)): 21 µM; EC50 [30]: 17 µM; EC50 [31]: 12 µM |
| CC(C)C[C@H](NC(=O)[C@@H]1N[C@H](c2ccccc2)[C@@H]([N+](=O)[O-])[C@@H]1c1cccs1)B(O)O [Example 10, (R)-3-methyl-1-((2R,3R,4S,5R)-4-nitro-5-phenyl-3-(thiophen-2-yl)pyrrolidine-2-carboxamido)butylboronic acid] | 0.29 µM | 2.6 µM | 0.31 µM | 0.78 µM | 0.64 µM | 3.5 µM | 13 µM | 0.56 µM | 0.08 µM | 1.2 µM | 0.14 µM | 2.5 µM | 0.49 µM | 2.8 µM | 2.4 µM | 1.8 µM | 1.1 µM | 0.7 µM | 0.86 µM | 1.2 µM | EC50 ([2]; A-431, Epidermoid A431, Hexosaminidase assay (*)): 0.03 µM; EC50 ([7]; Fibrosarcoma HT-1080, Alamar Blue): 1.4 µM; EC50 [23]: 0.53 µM; EC50 [24]: 0.43 µM; EC50 ([25]; Breast cancer SK-BR-3, Alamar Blue): 0.44 µM; EC50 [26]: 0.49 µM; EC50 [27]: 1.3 µM; EC50 [28]: 2.3 µM; EC50 ([29]; Alamar Blue): 0.57 µM; EC50 [30]: 2.8 µM; EC50 [31]: 0.5 µM |
